Results from US20080138317A1, “Use of biocompatible amphiphilic polymers as an anti-inflammatory agent” (priority 2004, published 2008).

Test system: TNF-α release from monocytes
Format: cell-based
Details: supernatant of human monocytes after overnight incubation; okadaic acid (OA) 50 nM; troglitazone 30 μm; MGSA polymers 50%; ELISA
Protocol: Human monocytes were isolated from freshly collected buffy coat preparations of whole human blood. Briefly, whole blood was diluted 1:1.33 with sterile phosphate buffered solution (PBS) and layered over Histopaque, which was then centrifuged for 30 minutes at 1500 rpm at room temperature. The interface was harvested and washed with PBS, followed by another centrifugation at 1500 rpm for 10 minutes. A final wash was performed in RPMI 1640 with 10% fetal bovine serum (FBS). Cells were counted using a hemacytometer and seeded at 2.4×10^6 cells/300 μl into a 48-well tissue culture treated plate. Cells were incubated for 1 hour at 37° C., 5% CO2 and non-adherent cells were removed with a PBS wash. 300 μl of RPMI 1640 with 10% FBS was added back to the cells along with the various test conditions; cells in media alone, with DMSO (the vehicle used to reconstitue okadaic acid and troglitazone), with okadaic acid (OA, 50 nM), with OA and troglitazone (30 μm), with OA and monostearyl glyceride succinic anhydride (MGSA)-liquid (3305-15, 50%), and with OA and MGSA-solid (2804-60, 50%). The supernatants were collected after overnight incubation at 37° C., 5% CO2 and later analyzed for TNF-α by ELISA.

SMILES	TNF-α
Cc1c(C)c2c(c(C)c1O)CCC(C)(COc1ccc(CC3SC(=O)NC3=O)cc1)O2 (centres unmarked) [Troglitazone]	422.554 ng/mL
C=C1[C@@H](O)[C@@H]2O[C@]3(CC[C@H](/C=C/[C@@H](C)[C@@H]4CC(C)=C[C@@]5(O[C@H](C[C@@](C)(O)C(=O)O)CC[C@H]5O)O4)O3)CC[C@H]2O[C@@H]1[C@@H](O)C[C@H](C)[C@H]1O[C@@]2(CCCCO2)CC[C@H]1C [Okadaic Acid, okadaic acid]	575.765 ng/mL
